These results are taken from patent US20220281822A1, “PLANT GROWTH REGULATOR AND METHOD FOR PROMOTING PLANT GROWTH” (Kureha Corporation, priority 2019, published 2022).

Format in all cases: in vivo
Test [1] relates to Arabidopsis thaliana (Col-O). Briefly: Seed yield of Arabidopsis thaliana at different compound concentrations (Examples 2 to 4). To be noted: for Seed yield Ratio: 85th day, Comparative Example 6 (distilled water) set to 1; for Seed yield: harvested on 85th day after seeding, 22° C. Here is the method:
One individual Arabidopsis thaliana (Col-O) was sown in a plastic pot having a diameter of 60 mm and a height of 55 mm. Plastic deep dishes each having a diameter of 160 mm and a height of 28 mm were prepared, and six pots were respectively placed therein. As soil, 45 mL of vermiculite, 22.5 mL of granular soil (JA Granular Kumiai Synthetic Soil No. 3), and 22.5 mL of vermiculite were placed in each pot in this order.
The procedure was the same as in Example 1, except that the room temperature was set to 22° C.
On the 85th day after seeding, seeds were harvested, and the seed yield (mg/plant) was measured.
The same operation as in Example 2 was carried out except that the concentration of L-(+)-ergothioneine aqueous solution was set to 0.1 mM.
The same operation as in Example 2 was carried out except that the concentration of L-(+)-ergothioneine aqueous solution was set to 0.01 mM. […]
The same operation as in Example 2 was carried out except that the L-(+)-ergothioneine aqueous solution was replaced with distilled water.
(§1) The ratio of “grass height” and “flowers and fruits” for Example 1, Comparative Example 1, and Comparative Example 2 to the results of Comparative Example 2 are shown in Table 1 as “Ratio”, respectively. The “seed yield” for Examples 2 to 4 and Comparative Examples 3 to 6 are shown as “Ratio” in Table 2, where the value for Comparative Example 6 is set to 1. The “seed yield” for Examples 5 and 6 and Comparative Examples 7 and 8 are shown as “Ratio” in Table 3, where the value for Comparative Example 8 is set to 1.

Test [2] has as its system Arabidopsis thaliana (Col-O). Briefly: Plant height and number of flowers and fruits of Arabidopsis thaliana after treatment via water supply (Example 1). To be noted: for Flower and Fruit Ratio / Plant height Ratio: 1 mM, 37th day after seeding, ratio to Comparative Example 2 (distilled water); for Flower and Fruit / Plant height: 50 mL of 1 mM aqueous solution on 21st, 23rd, 25th, 27th days after seeding, measured on 37th day, 25° C. Here is the method:
Arabidopsis thaliana (Col-O) was sown in plastic pots having a width of 65 mm, a depth of 65 mm, and a height of 70 mm, three individuals per pot. Plastic deep dishes each having a diameter of 160 mm and a height of 28 mm were prepared, and three pots were respectively placed therein. As soil, 100 mL of vermiculite, 50 mL of granular soil (JA Granular Kumiai Synthetic Soil No. 3), and 50 mL of vermiculite were placed in each pot in this order.
In a thermostatic chamber set at room temperature of 25° C., the light period was 16 hours and the dark period was 8 hours. The light conditions were set using a fluorescent lamp (PLANT FLEC, 40 W LED fluorescent lamp for plant growth, electric bulb color, available from Nippon Medical and Chemical Instruments Co., Ltd.) so that the light intensity was 5000 lx in the central part under the fluorescent lamp irradiation. Water supply was done from the bottom, and the water level was set at about 5 mm. Ergothioneine treatment was started 4 weeks after seeding. More specifically, on the 21st, 23rd, 25th, and 27th days after seeding, 50 mL of a 1 mM L-(+)-ergothioneine (available from Cayman Chemical) aqueous solution was added instead of water supply.
On the 37th day after seeding, the plant height (cm) and the number of flowers and fruits per Arabidopsis thalianawere measured.
The same operation as in Example 1 was carried out except that L-(+)-ergothioneine in the aqueous solution was replaced with oxidized glutathione (available from Wako Pure Chemical Industries, Ltd.).
The same operation as in Example 1 was carried out except that the L-(+)-ergothioneine aqueous solution was replaced with distilled water.
as §1

The test system of test [3] is Arabidopsis thaliana (Col-O). Description: Seed yield of Arabidopsis thaliana at different times of treatment (Examples 5 and 6). To be noted: 1 mM; for Seed yield: harvested on 82nd day, 22° C.; for Seed yield Ratio: 82nd day, Comparative Example 8 (distilled water) set to 1. Here is the method: The same operation as in Example 2 was carried out.
The same operation as in Example 1 was carried out except that the room temperature was set at 22° C. and L-(+)-ergothioneine was added 2 weeks after seeding, more specifically on the 8th, 10th, 12th, and 14th days.
On the 82nd day after seeding, seeds were harvested, and the seed yield (mg/plant) was measured.
The same operation as in Example 5 was carried out except that L-(+)-ergothioneine was added 4 weeks after seeding, more specifically on the 22nd, 24th, 26th, and 28th days.
The same operation as in Example 5 was carried out except that oxidized glutathione was used in place of L-(+)-ergothioneine in the aqueous solution and added 4 weeks after seeding, more specifically on the 22nd, 24th, 26th, and 28th days.
The same operation as in Example 5 was carried out except that the L-(+)-ergothioneine aqueous solution was replaced with distilled water.
as §1

The mark [4] stands for this setting: time of treatment 4 weeks after seeding (22nd, 24th, 26th, 28th days).
Setting [5] is: time of treatment 4 weeks after seeding.

`O=C(O)[C@@H]1CCCN1` [L-proline, reference compound]: in test [1] (compound concentration 1 mM), the “Seed yield Ratio” value is reported as 1.2 and the Seed yield was determined as 102 mg/plant.
Regarding “oxidized glutathione [reference compound]”, in test [2], the “Flower and Fruit Ratio” value stood at 1.5; the “Plant height Ratio” value was 1.1; the “Flower and Fruit” value is given as 22 Number/plant; the Plant height is on record as 24 cm. Moreover, in test [1] (compound concentration 1 mM), the “Seed yield Ratio” value was 1.2 and the Seed yield worked out at 100 mg/plant. Also, the Seed yield in test [3] (setting [4]) came to 92 mg/plant. Besides, in test [3] (setting [5]), the “Seed yield Ratio” value amounted to 1.3.
With `N[C@@H](CCC(=O)O)C(=O)O` [L-glutamic acid, reference compound], in test [1] (compound concentration 1 mM), the “Seed yield Ratio” value was determined as 1.0 and the Seed yield is 90 mg/plant.
`C[N+](C)(C)[C@@H](Cc1c[nH]c(=S)[nH]1)C(=O)[O-]` [L-(+)-ergothioneine]: in test [2], the “Flower and Fruit Ratio” value is on record as 1.7. In addition, the “Plant height Ratio” value in test [2] amounted to 1.3. Moreover, the “Flower and Fruit” value in test [2] was found to be 26 Number/plant. In test [2], the Plant height was found to be 29 cm. Moreover, the “Seed yield Ratio” value stood at 1.3 in test [1] (compound concentration 0.01 mM); 1.5 in test [1] (compound concentration 0.1 mM); 1.7 in test [1] (compound concentration 1 mM); 2.0 in test [3] (time of treatment 2 weeks after seeding); 1.7 in test [3] (setting [5]). Moreover, the Seed yield was 109 mg/plant in test [1] (compound concentration 0.01 mM); 130 mg/plant in test [1] (compound concentration 0.1 mM); 142 mg/plant in test [1] (compound concentration 1 mM); 140 mg/plant in test [3] (time of treatment 2 weeks after seeding (8th, 10th, 12th, 14th days)); 114 mg/plant in test [3] (setting [4]).
